For 28 molecules, IC50 results are on record in article PMC2248166, “Quantitative peptide binding motifs for 19 human and mouse MHC class I molecules derived using positional scanning combinatorial peptide libraries” (Immunome Research, 2008).

Where a SMILES comes first, the peptide text is derived from it.

The target of the assay is HLA B*1501 (Homo sapiens, UniProt P01889, A329T/A93T/A95T/C349S/D201E/D98Y/E187L/E204Q/E69M/E70A/K202T/N87E/Q94N/R155S/R180W/S121R/S35A/S48A/V306I/V36M/Y140S/Y91S). Kind of assay: biochemical. The format is binding.

A word on the IC50: it is the midpoint of a concentration-inhibition curve. A lower IC50 goes with inhibition by little substance. `CC[C@H](C)[C@H](NC(=O)[C@H](CCSC)NC(=O)[C@@H](N)CCC(=O)O)C(=O)N[C@@H](CC(C)C)C(=O)N[C@@H](CO)C(=O)N[C@H](C(=O)N[C@@H](CO)C(=O)N[C@@H](CO)C(=O)N[C@@H](CCSC)C(=O)O)[C@@H](C)O` [3102.0806] (H-EMILSTSSM-OH): inhibition was half-maximal at 0.0015 µM (IC50).
For `CSCC[C@H](NC(=O)[C@H](Cc1c[nH]cn1)NC(=O)[C@@H]1CCCN1C(=O)[C@H](CC(C)C)NC(=O)[C@H](Cc1ccccc1)NC(=O)[C@H](CC(N)=O)NC(=O)[C@H](Cc1c[nH]cn1)NC(=O)[C@H](CC(C)C)NC(=O)[C@@H](N)CCSC)C(=O)O` [3102.0846] (H-MLHNFLPHM-OH) the value was 0.041 µM.
For `CC[C@H](C)[C@H](NC(=O)[C@H](CCC(N)=O)NC(=O)[C@@H](N)CC(C)C)C(=O)N[C@@H](Cc1ccccc1)C(=O)N[C@@H](CO)C(=O)N[C@@H](CC(N)=O)C(=O)N[C@@H](CO)C(=O)N[C@H](C(=O)NCC(=O)O)C(C)C` [3102.0809] (H-LQIFSNSVG-OH), the IC50 turned out to be 0.0021 µM. Compared with the last molecule, the IC50 is about 20-fold lower.
On to `CC[C@H](C)[C@H](NC(=O)[C@H](CC(N)=O)NC(=O)[C@H](CC(N)=O)NC(=O)[C@@H](NC(=O)[C@@H](N)CO)[C@@H](C)CC)C(=O)N[C@@H](CC(=O)O)C(=O)N1CCC[C@H]1C(=O)N[C@@H](Cc1c[nH]cn1)C(=O)N[C@@H](Cc1ccccc1)C(=O)O` [3102.1039] (H-SINNIDPHF-OH), for which inhibition was half-maximal at 0.012 µM (IC50).
The molecule `CC(C)C[C@H](NC(=O)[C@H](Cc1ccc(O)cc1)NC(=O)[C@H](Cc1ccccc1)NC(=O)[C@@H](NC(=O)[C@H](CC(N)=O)NC(=O)[C@H](CCCCN)NC(=O)[C@H](CO)NC(=O)[C@@H](N)CC(C)C)[C@@H](C)O)C(=O)N[C@@H](Cc1ccccc1)C(=O)O` [3102.0952] (H-LSKNTFYLF-OH) showed an IC50 of 0.014 µM.
With `CC[C@H](C)[C@H](NC(=O)[C@H](CC(N)=O)NC(=O)[C@H](C)N)C(=O)N[C@H](C(=O)N[C@@H](Cc1c[nH]cn1)C(=O)N[C@@H](Cc1ccccc1)C(=O)N[C@@H](CS)C(=O)N[C@@H](CO)C(=O)N[C@@H](Cc1ccccc1)C(=O)O)[C@@H](C)O` [3102.1005] (H-ANITHFCSF-OH), the IC50 came to 0.015 µM.
For `CC[C@H](C)[C@H](NC(=O)[C@@H](NC(=O)[C@@H](N)CO)[C@@H](C)CC)C(=O)N[C@H](C(=O)N[C@@H](CC(C)C)C(=O)N[C@@H](Cc1ccccc1)C(=O)N[C@@H](CCC(N)=O)C(=O)N[C@@H](CCCNC(=N)N)C(=O)N[C@@H](Cc1ccccc1)C(=O)O)C(C)C` [3102.0801] (H-SIIVLFQRF-OH) the value was 0.0011 µM.
For `CC[C@H](C)[C@H](NC(=O)[C@H](C)NC(=O)[C@H](CC(C)C)NC(=O)[C@@H](N)CC(C)C)C(=O)N[C@@H](CO)C(=O)N[C@@H](C)C(=O)N[C@H](C(=O)N[C@@H](Cc1ccc(O)cc1)C(=O)N[C@@H](Cc1ccccc1)C(=O)O)C(C)C` [3102.0875] (H-LLAISAVYF-OH) the value was 0.032 µM; for `CC(C)C[C@H](NC(=O)[C@H](Cc1ccccc1)NC(=O)[C@H](C)NC(=O)CNC(=O)[C@H](CS)NC(=O)[C@H](CC(C)C)NC(=O)[C@@H](N)CCC(=O)O)C(=O)N[C@@H](Cc1ccccc1)C(=O)N[C@@H](Cc1ccc(O)cc1)C(=O)O` [3102.1015] (H-ELCGAFLFY-OH), 0.0075 µM.
For the molecule `CC[C@H](C)[C@H](NC(=O)[C@H](CC(N)=O)NC(=O)[C@@H]1CCCN1C(=O)[C@H](CS)NC(=O)[C@@H](NC(=O)[C@@H](N)CCSC)C(C)C)C(=O)N[C@@H](CC(N)=O)C(=O)N[C@@H](C)C(=O)N[C@@H](Cc1ccccc1)C(=O)O` [3102.0876] (H-MVCPNINAF-OH), half-maximal inhibition (IC50) required 0.022 µM.
For `CC(C)C[C@H](NC(=O)[C@H](CS)NC(=O)[C@H](CCCCN)NC(=O)[C@H](CCCCN)NC(=O)[C@H](Cc1ccccc1)NC(=O)[C@H](CO)NC(=O)[C@@H](N)Cc1ccccc1)C(=O)N[C@H](C(=O)N[C@@H](Cc1ccc(O)cc1)C(=O)O)C(C)C` [3102.0925] (H-FSFKKCLVY-OH) the value was 0.0047 µM.
As for `CC[C@H](C)[C@H](N)C(=O)N[C@@H](CO)C(=O)N[C@@H](CCCCN)C(=O)N[C@@H](CC(N)=O)C(=O)N[C@@H](C)C(=O)N[C@@H](Cc1ccccc1)C(=O)N[C@@H](CO)C(=O)N[C@@H](CS)C(=O)N[C@@H](CCSC)C(=O)O` [3102.0935] (H-ISKNAFSCM-OH), the IC50 was 0.078 µM. This IC50 is about 17-fold higher than that of the molecule before.
Turning to `CC[C@H](C)[C@H](NC(=O)[C@@H](N)CCC(=O)O)C(=O)N[C@@H](Cc1ccccc1)C(=O)N[C@@H](CCCCN)C(=O)N[C@@H](Cc1c[nH]cn1)C(=O)N[C@@H](CC(C)C)C(=O)N[C@H](C(=O)N[C@@H](Cc1ccccc1)C(=O)N[C@@H](Cc1ccccc1)C(=O)O)C(C)C` [3102.0972] (H-EIFKHLVFF-OH), half-maximal inhibition (IC50) required 0.012 µM.
The molecule `CC(C)C[C@H](NC(=O)[C@H](CCCCN)NC(=O)[C@H](CS)NC(=O)[C@H](CC(C)C)NC(=O)[C@@H](N)CO)C(=O)N[C@@H](CC(N)=O)C(=O)N[C@@H](CC(N)=O)C(=O)N[C@H](C(=O)N[C@@H](Cc1ccccc1)C(=O)O)C(C)C` [3102.0874] (H-SLCKLNNVF-OH) showed an IC50 of 0.016 µM.
`CC[C@H](C)[C@H](NC(=O)[C@@H](N)Cc1ccccc1)C(=O)N[C@@H](CC(N)=O)C(=O)N[C@@H](CO)C(=O)N[C@H](C(=O)N[C@@H](CS)C(=O)N[C@@H](Cc1ccc(O)cc1)C(=O)N[C@H](C(=O)N[C@@H](Cc1ccccc1)C(=O)O)C(C)C)[C@@H](C)O` [3102.0986] (H-FINSTCYVF-OH) showed an IC50 of 0.0043 µM.
As to `CC[C@H](C)[C@H](NC(=O)[C@@H](N)CO)C(=O)N[C@@H](CCCCN)C(=O)N[C@@H](CC(N)=O)C(=O)N[C@@H](CC(C)C)C(=O)N[C@H](C(=O)N[C@@H](CO)C(=O)N[C@@H](CCC(N)=O)C(=O)N[C@@H](Cc1ccccc1)C(=O)O)C(C)C` [3102.0951] (H-SIKNLVSQF-OH), the concentration for half-maximal inhibition (IC50) was 0.025 µM.
`CSCC[C@H](N)C(=O)N[C@H](C(=O)N[C@@H](Cc1ccc(O)cc1)C(=O)N[C@@H](CCCCN)C(=O)N[C@@H](CC(C)C)C(=O)N[C@H](C(=O)N[C@@H](CC(C)C)C(=O)N[C@@H](CC(C)C)C(=O)N[C@@H](Cc1ccccc1)C(=O)O)C(C)C)C(C)C` [3102.0893] (H-MVYKLVLLF-OH): 0.071 µM corresponded to half-maximal inhibition (IC50).
Take `CC(C)C[C@H](N)C(=O)N[C@@H](C)C(=O)N[C@@H](CC(N)=O)C(=O)N[C@H](C(=O)N[C@@H](CC(N)=O)C(=O)N[C@@H](Cc1ccccc1)C(=O)N[C@@H](Cc1ccccc1)C(=O)N[C@H](C(=O)N[C@@H](Cc1ccccc1)C(=O)O)C(C)C)[C@@H](C)O` [3102.0800] (H-LANTNFFVF-OH): the IC50 turned out to be 0.017 µM.
As for `CC(C)C[C@H](NC(=O)[C@H](CC(C)C)NC(=O)[C@@H](N)Cc1ccccc1)C(=O)N[C@@H](CO)C(=O)N[C@@H](CC(C)C)C(=O)N[C@H](C(=O)N[C@@H](CCC(=O)O)C(=O)N[C@@H](Cc1ccccc1)C(=O)N[C@@H](Cc1ccccc1)C(=O)O)C(C)C` [3102.1008] (H-FLLSLVEFF-OH), the figure is 0.00082 µM; as for `CSCC[C@H](NC(=O)[C@H](CCC(N)=O)NC(=O)[C@H](CCC(N)=O)NC(=O)[C@@H](NC(=O)[C@H](CCC(=O)O)NC(=O)[C@@H]1CCCN1C(=O)[C@H](CO)NC(=O)[C@H](CO)NC(=O)[C@@H](N)CCCCN)[C@@H](C)O)C(=O)O` [3102.1065] (H-KSSPETQQM-OH), 0.03 µM; as for `CC[C@H](C)[C@H](N)C(=O)N[C@@H](CO)C(=O)N[C@H](C(=O)N[C@@H](CCCCN)C(=O)N[C@@H](CC(C)C)C(=O)N[C@@H](CO)C(=O)N[C@@H](CS)C(=O)N[C@@H](Cc1c[nH]cn1)C(=O)N[C@@H](Cc1ccc(O)cc1)C(=O)O)[C@@H](C)O` [3102.0872] (H-ISTKLSCHY-OH), 0.018 µM.
`CC[C@H](C)[C@H](NC(=O)[C@@H](NC(=O)[C@@H](NC(=O)[C@H](C)NC(=O)[C@H](CCSC)NC(=O)[C@@H](N)Cc1ccc(O)cc1)[C@@H](C)O)[C@@H](C)O)C(=O)N[C@@H](CC(C)C)C(=O)N[C@@H](CCC(=O)O)C(=O)N[C@@H](CCSC)C(=O)O` [3102.0830] (H-YMATTILEM-OH) gave an IC50 of 0.0022 µM.
`CC[C@H](C)[C@H](NC(=O)[C@H](CCC(=O)O)NC(=O)[C@@H](N)CO)C(=O)N[C@@H](CCCNC(=N)N)C(=O)N[C@@H](Cc1c[nH]c2ccccc12)C(=O)N[C@@H](CCC(=O)O)C(=O)N[C@@H](CCC(=O)O)C(=O)N[C@@H](CO)C(=O)N[C@@H](Cc1ccccc1)C(=O)O` [3102.0890] (H-SEIRWEESF-OH): the IC50 is 0.047 µM.
For `CC(C)C[C@H](NC(=O)[C@@H](N)CC(C)C)C(=O)N[C@@H](Cc1c[nH]cn1)C(=O)N[C@@H](CS)C(=O)N[C@H](C(=O)N[C@H](C(=O)N[C@@H](CCC(=O)O)C(=O)N[C@@H](CO)C(=O)N[C@@H](Cc1ccc(O)cc1)C(=O)O)[C@@H](C)O)C(C)C` [3102.1022] (H-LLHCVTESY-OH), the IC50 came out at 0.001 µM.
Molecule `CC[C@H](C)[C@H](NC(=O)[C@@H](NC(=O)CN)[C@@H](C)O)C(=O)N[C@@H](CCSC)C(=O)N[C@H](C(=O)N[C@@H](CO)C(=O)N[C@@H](CCC(=O)O)C(=O)N[C@@H](Cc1c[nH]cn1)C(=O)N[C@@H](Cc1ccccc1)C(=O)O)C(C)C` [3102.1012] (H-GTIMVSEHF-OH) returned an IC50 of 0.057 µM.
Regarding `CSCC[C@H](NC(=O)[C@H](CCCNC(=N)N)NC(=O)[C@H](CS)NC(=O)[C@@H]1CCCN1C(=O)[C@H](CO)NC(=O)[C@@H](N)CCSC)C(=O)N[C@@H](Cc1ccccc1)C(=O)N[C@@H](CO)C(=O)N[C@@H](Cc1ccccc1)C(=O)O` [3102.0921] (H-MSPCRMFSF-OH), the IC50 worked out at 0.017 µM.
Molecule `CSCC[C@H](NC(=O)[C@H](C)NC(=O)[C@@H]1CCCN1C(=O)[C@@H](NC(=O)[C@H](Cc1ccc(O)cc1)NC(=O)[C@H](C)NC(=O)[C@H](CCCCN)NC(=O)[C@H](CCC(N)=O)NC(=O)[C@@H](N)CCC(=O)O)C(C)C)C(=O)O` [3102.1038] (H-EQKAYVPAM-OH) showed an IC50 of 0.00077 µM.
`CC[C@H](C)[C@H](NC(=O)[C@H](CO)NC(=O)[C@H](C)N)C(=O)N[C@H](C(=O)N[C@@H](C)C(=O)N[C@@H](Cc1ccccc1)C(=O)N[C@@H](CCCCN)C(=O)N[C@@H](CO)C(=O)N[C@@H](CCSC)C(=O)O)[C@@H](C)O` [3102.0999] (H-ASITAFKSM-OH) registered an IC50 of 0.025 µM.
